Data from patent US20210379042A1, “METHODS FOR MONITORING TUMOR LYSIS SYNDROME” (Sumitomo Dainippon Pharma Oncology, Inc., priority 2018, published 2021).

Columns and labels:
[1] = tested on: patients having newly diagnosed AML; test: Example 5: alvocidib plus daunorubicin/cytarabine (ACD) with TLS monitoring, treatment-emergent adverse events classified as TLS; type: in vivo, human
Description: This study will evaluate the safety and efficacy of alvocidib in combination with cytarabine/daunorubicin (7+3) in patients with newly diagnosed AML. Treatment consists of increasing dose levels of alvocidib starting at 20 mg/m^2 as a 30-minute IV bolus followed by 30 mg/m^2 over 4 hours on days 1-3, cytarabine 100 mg/m^2/day by continuous IV infusion on days 5-11, followed by (e.g., followed about 30 minutes later by) daunorubicin 60 mg/m^2 IV on days 5-7. Reinduction therapy with alvocidib (same dose as induction) days 1-3, followed by cytarabine 100 mg/m^2/day continuous IV on days 5-9, and daunorubicin 45 mg/m^2 IV days 5-6 is recommended in patients with >10% and >5% cellularity and blasts, respectively.
For patients at high risk for TLS, including those with risk scores of greater than or equal to 2 according to Table 1, those with monocytic leukemia phenotype, or those with a history of FLT3 positive AML, monitoring will include: (i) obtaining a STAT serum potassium at the end of an alvocidib infusion; (ii) obtaining a serum potassium 2 hours after the end of an alvocidib infusion, (iii) obtaining a full TLS panel 4 hours after the end of an alvocidib infusion, and (iv) monitoring fibrinogen levels at baseline and then as clinically indicated. If there is evidence of clinically meaningful TLS, a TLS panel will be obtained every 2 hours during the first 24 hours after the end of an alvocidib infusion (assessment of LDH levels at least once every 24 hours is also recommended). If there is no evidence of clinically meaningful TLS, a TLS panel will be obtained every 4 hours during the first 24 hours after the end of an alvocidib infusion (assessment of LDH levels at least once every 24 hours is also recommended). If, after the first 24 hours after the end of an alvocidib infusion, there is no evidence of TLS, a TLS panel will be obtained approximately every 6 hours for the remainder of alvocidib treatment, and then every 12 hours after completion of alvocidib during daunorubicin and cytarabine treatment (assessment of LDH levels at least once every 24 hours is also recommended).
For patients not at high risk for TLS, tumor lysis evaluations will be monitored at the start of alvocidib treatment and approximately every 4 hours thereafter for 24 hours. Laboratory studies during this period will be run as a “STAT” to ensure the results are available in a timely manner. If there is no evidence of TLS during first the 24 hours, then tumor lysis evaluations will be monitored approximately every 6-8 hours for the remainder of alvocidib treatment, and then every 12 hours after the completion of alvocidib during cytarabine and daunorubicin treatment. Fibrinogen levels will be monitored at baseline and then as clinically indicated.
Patients were treated with ACD according to a treatment regimen similar to that described in Example 2, and monitored for TLS according to the monitoring protocols described in Example 2. Briefly, treatment consisted of increasing dose levels of alvocidib starting at 20 mg/m^2 as a 30-minute (±10 minutes) IV bolus followed by 30 mg/m^2 as a 4-hour (±15 minutes) IV infusion on days 1-3, followed by daunorubicin 60 mg/m^2 IV on days 5-7 via IV bolus of up to 15 minutes (±5 minutes) in duration each day, followed by (e.g., followed immediately by) cytarabine 100 mg/m^2/day by 24-hour (±2 hours) continuous IV infusion on days 5-11. Reinduction therapy with alvocidib (same dose as induction) days 1-3, followed by daunorubicin 45 mg/m^2 IV via IV bolus of up to 15 minutes (±5 minutes) in duration each day on days 5-6, followed by (e.g., followed immediately by) cytarabine 100 mg/m^2/day continuous, 24-hour IV infusion (±2 hours) on days 5-9, was recommended in patients with evidence of residual leukemia, defined as >5% bone marrow blasts plus >10% cellularity, based on day 14 (±3 days) bone marrow. […]

[2] = tested on: cancer patients being treated with alvocidib; test: Clinical trials using a TLS monitoring protocol described herein: deaths attributed to TLS; type: in vivo, human; settings: to date
Excerpt: Current protocols for monitoring the development of TLS in patients vary greatly due to interindividual clinician experience and different standards of care among institutions. The risk for and rapid development of TLS in cancer patients being treated with alvocidib presents a need for more precise but clinically practical TLS monitoring protocols that allow subjects to remain on alvocidib treatment and avoid dose-limiting TLS. To date, there have been no deaths attributed to TLS in clinical trials using a TLS monitoring protocol described herein.

[3] = statement without data; prodrugs described in WO 2016/187316 and WO 2018/094275; cited from earlier work
[4] = Study Total, all dose levels (N = 31)
[5] = alvocidib 30/40 mg/m^2 (bolus/infusion) days 1-3 with daunorubicin and cytarabine (N = 3)
[6] = alvocidib 30/60 mg/m^2 (bolus/infusion) days 1-3 with daunorubicin and cytarabine (N = 22)

| SMILES | Tumor lysis syndrome, treatment-emergent adverse events, number of patients [1, 4] | Tumor lysis syndrome, treatment-emergent adverse events, percent of patients [1, 4] | Tumor lysis syndrome, treatment-emergent adverse events, number of patients ([1]; alvocidib 20/30 mg/m^2 (bolus/infusion) days 1-3 with daunorubicin and cytarabine (N = 3)) | Tumor lysis syndrome, treatment-emergent adverse events, number of patients [1, 5] | Tumor lysis syndrome, treatment-emergent adverse events, percent of patients [1, 5] | Tumor lysis syndrome, treatment-emergent adverse events, number of patients ([1]; alvocidib 30/50 mg/m^2 (bolus/infusion) days 1-3 with daunorubicin and cytarabine (N = 3)) | Tumor lysis syndrome, treatment-emergent adverse events, number of patients [1, 6] | Tumor lysis syndrome, treatment-emergent adverse events, percent of patients [1, 6] | deaths attributed to TLS [2] | oral bioavailability [3] |
| --- | --- | --- | --- | --- | --- | --- | --- | --- | --- | --- |
| CN1CC[C@H](c2c(O)cc(O)c3c(=O)cc(-c4ccccc4Cl)oc23)[C@H](O)C1 [Alvocidib, 2-(2-chlorophenyl)-5,7-dihydroxy-8-[(3 S,4R)-3-hydroxy-1-methylpiperidin-4-yl]chromen-4-one] | 8 | 25.8% | 0 | 1 | 33.3% | 0 | 7 | 31.8% | no deaths |  |
| CN1CC[C@H](c2c(OP(=O)(O)O)cc(O)c3c(=O)cc(-c4ccccc4Cl)oc23)[C@H](O)C1 [Ia] |  |  |  |  |  |  |  |  |  | orally bioavailable |
